{"source": "patent US7368582B2", "about": "“Amidomethyl-substituted 2-(4-sulfonylamino)-3-hydroxy-3,4-dihydro-2H-chromen-6-yl compounds, a process and intermediates for their production, and pharmaceutical compositions containing them” (Solvay Pharmaceuticals GmbH, priority 2003, dated 2008)", "key": {"[1]": {"target": "T1, Kv 1.5-potassium channel (Homo sapiens, UniProt P22460)", "T1 construct": "expressed in transfected cells", "T1 sequence (P22460 whole entry)": "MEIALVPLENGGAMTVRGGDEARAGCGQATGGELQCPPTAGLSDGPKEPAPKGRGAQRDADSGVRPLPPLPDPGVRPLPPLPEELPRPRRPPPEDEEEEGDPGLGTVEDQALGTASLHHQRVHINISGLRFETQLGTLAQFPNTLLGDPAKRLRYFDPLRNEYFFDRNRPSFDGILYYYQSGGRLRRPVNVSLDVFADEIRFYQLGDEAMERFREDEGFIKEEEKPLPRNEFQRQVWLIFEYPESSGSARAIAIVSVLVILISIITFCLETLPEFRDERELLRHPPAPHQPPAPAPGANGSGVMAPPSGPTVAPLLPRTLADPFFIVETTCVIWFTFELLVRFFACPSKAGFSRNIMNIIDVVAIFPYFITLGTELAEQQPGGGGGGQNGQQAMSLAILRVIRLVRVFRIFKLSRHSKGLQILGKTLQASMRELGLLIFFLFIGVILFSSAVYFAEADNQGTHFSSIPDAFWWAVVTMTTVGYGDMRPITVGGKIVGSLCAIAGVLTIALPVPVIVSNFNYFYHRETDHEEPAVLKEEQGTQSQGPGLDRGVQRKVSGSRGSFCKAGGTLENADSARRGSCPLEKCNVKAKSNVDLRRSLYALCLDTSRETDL", "assay": "In-vitro Kv 1.5-potassium channel-blocking effect (Rb+ outflow from CHO cells, atomic absorption spectroscopy)", "assay_type": "cell-based", "settings": "CHO cells stably expressing Kv 1.5, read-out: IC50 (Kv1.5-potassium channel-blocking effect, concentration of half-maximum inhibition)", "experimental": "1. In-Vitro Investigation of the Kv 1.5-Potassium Channel-Blocking Effect of the Substances\nIn this test model, a cell line of egg cells of the Chinese hamster (=“Chinese hamster oocytes”, “CHO”) is used which originates from a single cell and stably expresses the Kv 1.5-channel. By incubation overnight in a nutrient medium containing RbCl or a “loading buffer” (all values in mM: RbCl 5, NaCl 140, CaCl2 2, MgSO4 1, HEPES buffer 10, glucose 5) the aforementioned oocytes are loaded with Rb^+ under the influence of Na^+/K^+-ATPase. Thereafter, a portion of the oocytes is incubated as a reference standard in the absence of an inhibitor, while another portion of the oocytes is incubated in the presence of the respective inhibitory test substance of Formula I. Then the oocytes are depolarized by increasing the extracellular potassium-ion concentration, which causes the Kv 1.5-potassium channels of the oocytes to open. In the absence of an inhibitor, the Rb^+ ions flow through the Kv 1.5-potassium channels into the liquid surrounding them. In the presence of an inhibitory test substance of Formula I, on the other hand, the Rb^+ ions remain locked within the oocytes. The extent of the Kv 1.5-potassium channel-blocking effect of the test substances of Formula I is determined by measuring the Rb^+ ion concentration in the liquid surrounding them by means of atomic absorption spectroscopy against a reference standard.\nChinese hamster oocytes (see above) were cultivated in a known, RbCl-containing nutrient medium for CHO-cells and placed in the sample wells of a 96-sample capacity sample plate (“96 well plate”). The oocytes were allowed to grow overnight in order to obtain monolayers of the oocytes. Then the nutrient medium was pipetted off, and each sample well was washed three times with 100 μl portions of a preincubation buffer of low potassium-ion concentration (all values in mM: KCl 5, NaCl 140, CaCl2 2, MgSO4 1, HEPES buffer 10, glucose 5). Then 50 μl of a solution of the respective test substance (stock solution in DMSO, dilution with preincubation buffer, final concentration in the test batch 10 μM) or of the solvent (as negative controls) was added to each sample well and incubated for 10 min. in each case at room temperature. Then 50 μl of a stimulation buffer with elevated potassium-ion concentration (KCl 145 mM, NaCl 0 mM, otherwise as preincubation buffer) was added to each sample well and the samples were then incubated for a further 10 min. at room temperature. In each case, 80 μl of the liquid surrounding the oocytes from each sample well was then transferred separately to the sample wells of an analysis sample plate, and the Rb^+ ion concentration in the liquids was determined by atomic absorption spectroscopy. The test substances were each double-tested. The signal section which represented the Kv 1.5 component of the Rb^+ outflow was defined by using as positive control the known potassium channel blocker 4-AP in a high concentration (100×IC50 for the Kv 1.5 channel). This made it possible to determine which portion of the Rb^+ outflow was dependent on the influence of the 4-AP and therefore is to be assigned to the Kv 1.5 channel. For the substances which in the concentration of 10 μM used led to a reduction in the Rb^+ outflow of at least 50%, additional tests were performed with lower concentrations of the test substances in order to be able to determine the half-maximum effective concentration. In each case the concentration of half-maximum inhibition of the test substances of Formula I (IC50) was given as characteristic variable."}, "[2]": {"test_system": "left atrium of rats' hearts", "assay": "Functional refractory period prolongation on isolated left atria of rats' hearts in vitro", "parameters": "species or system rat (Sprague-Dawley)", "settings": "10 μM", "experimental": "3. Investigation of the Functional Effectiveness of the Substances on the Atrium of Rats' Hearts in Vitro\nIn this test model it is determined to what extent the Kv 1.5-blocking substances of Formula I result in a prolongation of the functional refractory period in the left atrium of rats. The refractory period is the minimum possible elapsed time between the basic stimulus and additional stimulus in which a renewed contraction can be triggered. The extent of the prolongation of the functional refractory period is a measurement of the antiarrhythmic effectiveness of the substances according to the invention. The functional refractory period is determined by testing on the electrically stimulated preparation at what elapsed time from the preceding contraction a renewed contraction can be triggered by additional electrical stimuli.\nThe hearts were removed from freshly sacrificed rats (Sprague-Dawley, Charles-River, Germany). The left atria were isolated and fastened to force transducers in a temperature-controlled (30° C.), gasified (O2 95%, CO2 5%) organ bath which was filled with modified Tyrode solution (all values in mM: NaCl 137; KCl 2.7; CaCl2 1.8; MgCl2 0.8; NaHCO3 11.9; NaH2PO4 0.6; glucose 5). In order to trigger regular contractions, the preparations were electrically stimulated (rectangular pulses, pulse magnitude 3.5× threshold stimulus, pulse width 1.5 ms, frequency 1 Hz). Initially, the initial value of the functional refractory period was determined by applying extra pulses in addition to the basic stimulus, the elapsed time from the preceding basic stimulus being shortened until no further additional contraction could be triggered. Then the cumulative addition of increasing concentrations (0.1-10 μM) of the substances of Formula I took place at intervals of 20 min. each, the refractory period being determined again in each case 18 min. after the addition had taken place. Before the measurement, stock solutions of the test substances (3.2 and 0.32 mM in 100% DMSO) were prepared. In order to achieve the desired final concentrations of the substances (0.1-10 μM) in the organ bath (volume 100 ml), corresponding volumes of these stock solutions were then poured into the organ bath.\nIn each case the prolongation of the functional refractory period (FRP) in the left atrium of the rats' hearts in milliseconds observed after the addition of 10 μM of the respective substance of Formula I to the atrial preparations was given as characteristic variable."}, "[3]": {"target": "T2, Kv 1.3-potassium channel (Homo sapiens, UniProt P22001)", "T2 construct": "expressed in transfected cells; host or cells: CHO cells, stably transfected with the Kv 1.3 plasmid using DMRIE-C", "T2 sequence (P22001 whole entry)": "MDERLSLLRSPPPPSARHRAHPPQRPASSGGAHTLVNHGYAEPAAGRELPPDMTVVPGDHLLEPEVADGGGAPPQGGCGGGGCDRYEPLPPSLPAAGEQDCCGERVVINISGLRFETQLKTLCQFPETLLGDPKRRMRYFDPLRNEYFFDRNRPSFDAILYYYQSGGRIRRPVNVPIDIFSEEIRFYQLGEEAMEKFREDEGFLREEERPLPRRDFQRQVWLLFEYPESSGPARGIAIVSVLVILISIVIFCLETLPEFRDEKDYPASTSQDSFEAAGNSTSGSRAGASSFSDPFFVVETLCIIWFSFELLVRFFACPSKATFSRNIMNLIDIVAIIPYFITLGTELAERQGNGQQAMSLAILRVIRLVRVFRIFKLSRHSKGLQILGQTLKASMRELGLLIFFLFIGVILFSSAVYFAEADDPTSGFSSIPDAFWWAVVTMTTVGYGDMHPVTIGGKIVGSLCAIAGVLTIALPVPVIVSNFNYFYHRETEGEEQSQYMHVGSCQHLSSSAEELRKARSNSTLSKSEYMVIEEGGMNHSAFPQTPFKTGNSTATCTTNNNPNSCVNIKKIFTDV", "assay": "In-vitro Kv 1.3-potassium channel-blocking effect (membrane potential-sensitive fluorescent dye in transfected CHO cells)", "assay_type": "cell-based", "settings": "10 μM test substance; CHO cells transfected with Kv 1.3; relative to reference margatoxin", "description": "2. In-Vitro Investigation of the Kv 1.3-Potassium Channel-Blocking Effect of the Substances\nIn this test model, known oocytes of the Chinese hamster (═CHO) are used which are stably transfected with the Kv 1.3-potassium channel. The blockade of the cell-inherent Kv 1.3-potassium channel activity in the transfected cells is accompanied by a positive shift in the membrane potential from approx. −40 mV to −30 mV, whereas in the wild-type CHO cells investigated in parallel no significant shift in the membrane potential is triggered. A change in the membrane potential is thus connected to the reduction in the Kv 1.3-potassium channel activity. By blocking the Kv 1.3-potassium channels e.g. with substances of Formula I and the resulting change in the membrane potential, an accumulation of a membrane potential-sensitive fluorescent dye in intracellular compartments of the oocytes and ultimately increasing fluorescence occurs. The change in the membrane potential of the oocytes is therefore measured indirectly via the increase in fluorescence of the membrane potential-senstive dyes.\nThe cells were transfected with the Kv 1.3 plasmid in known manner with a commercially obtainable transfection reagent (DMRIE-C from Gibco BRL, Germany). The successful transfection was verified by immunofluorescence and by “patch-clamp” investigations of the potassium ion current. The fluorescence measurements were performed on a Tecan Safire fluorescence reader from Tecan, Germany. In each case, the increase in the fluorescent intensity caused by the blockade of the Kv 1.3-potassium channels in the oocytes with substances of Formula I in a concentration of 10 μM was determined as characteristic variable. The increase in the fluorescent intensity was given in each case in percent (%) compared with an increase in the fluorescent intensity caused by the reference substance margatoxin. Margatoxin is known as a selective Kv 1.3-potassium channel blocker (see e.g. M. Garcia-Calvo et al., J. Biol. Chem. 268 (1993) 18866-18874)."}}, "data": [{"compound": "Cc1ccc(S(=O)(=O)NC2c3cc(CC(=O)NC4CCCc5ccccc54)ccc3OC(C)(C)C2O)cc1", "note": "(mixture of isomers) [Example 15]", "values": [{"measurement": "IC50", "setting": "[1]", "value": 4, "unit": "µM"}, {"measurement": "FRP prolongation", "setting": "[2]", "value": 30, "unit": "ms"}]}, {"compound": "Cc1cccc(S(=O)(=O)NC2c3cc(CC(=O)NCc4ccc(Cl)cc4)ccc3OC(C)(C)C2O)c1", "note": "(stereo not shown) [Example 5, N-(4-chlorobenzyl)-2-(3-hydroxy-2,2-dimethyl-4-{[(3-methylphenyl)sulfonyl]amino}-3,4-dihydro-2H-chromen-6-yl)acetamide]", "values": [{"measurement": "IC50", "setting": "[1]", "value": 5, "unit": "µM"}, {"measurement": "Increase in the fluorescent intensity (% margatoxin)", "setting": "[3]", "value": 82, "unit": "% margatoxin"}]}, {"compound": "CCCCNC(=O)Cc1ccc2c(c1)C(N(CC(CC)CC)S(=O)(=O)c1cc(OC)ccc1OC)C(O)C(C)(C)O2", "note": "(stereo not shown) [Example 6]", "values": [{"measurement": "IC50", "setting": "[1]", "value": 2.9, "unit": "µM"}, {"measurement": "Increase in the fluorescent intensity (% margatoxin)", "setting": "[3]", "value": 97, "unit": "% margatoxin"}]}, {"compound": "CCCCNC(=O)Cc1ccc2c(c1)C(NS(=O)(=O)c1ccc(I)cc1)C(O)C(C)(C)O2", "note": "(stereo not shown) [Example 17]", "values": [{"measurement": "IC50", "setting": "[1]", "value": 2.65, "unit": "µM"}, {"measurement": "Increase in the fluorescent intensity (% margatoxin)", "setting": "[3]", "value": 72, "unit": "% margatoxin"}]}, {"compound": "Cc1ccc(S(=O)(=O)N(CC2CC2)C2c3cc(CC(=O)NCc4ccccc4)ccc3OC(C)(C)C2O)cc1", "note": "(stereo not shown) [Example 18]", "values": [{"measurement": "IC50", "setting": "[1]", "value": 2.7, "unit": "µM"}, {"measurement": "Increase in the fluorescent intensity (% margatoxin)", "setting": "[3]", "value": 141, "unit": "% margatoxin"}]}, {"compound": "Cc1ccc(S(=O)(=O)N(CCC(C)C)C2c3cc(CC(=O)NCc4ccccc4)ccc3OC(C)(C)C2O)cc1", "note": "(stereo not shown) [Example 19]", "values": [{"measurement": "IC50", "setting": "[1]", "value": 2.5, "unit": "µM"}, {"measurement": "Increase in the fluorescent intensity (% margatoxin)", "setting": "[3]", "value": 171, "unit": "% margatoxin"}]}, {"compound": "CCC(CC)CN(C1c2cc(CC(=O)NCc3ccco3)ccc2OC(C)(C)C1O)S(=O)(=O)c1cc(OC)ccc1OC", "note": "(stereo not shown) [Example 21]", "values": [{"measurement": "IC50", "setting": "[1]", "value": 3.3, "unit": "µM"}, {"measurement": "Increase in the fluorescent intensity (% margatoxin)", "setting": "[3]", "value": 86, "unit": "% margatoxin"}]}, {"compound": "CCCCCN(C1c2cc(CC(=O)NC(C)C(C)C)ccc2OC(C)(C)C1O)S(=O)(=O)c1cccc(OC)c1", "note": "(stereo not shown) [Example 22]", "values": [{"measurement": "IC50", "setting": "[1]", "value": 3.4, "unit": "µM"}, {"measurement": "Increase in the fluorescent intensity (% margatoxin)", "setting": "[3]", "value": 71, "unit": "% margatoxin"}]}, {"compound": "CC(C)CCN(C1c2cc(CC(=O)NCc3ccccc3)ccc2OC(C)(C)C1O)S(=O)(=O)c1ccc(C(F)(F)F)cc1", "note": "(stereo not shown) [Example 23]", "values": [{"measurement": "IC50", "setting": "[1]", "value": 4.3, "unit": "µM"}, {"measurement": "Increase in the fluorescent intensity (% margatoxin)", "setting": "[3]", "value": 41, "unit": "% margatoxin"}]}, {"compound": "CCCNC(=O)Cc1ccc2c(c1)C(N(CC(C)C)S(=O)(=O)c1ccc(F)c(Cl)c1)C(O)C(C)(C)O2", "note": "(stereo not shown) [Example 24]", "values": [{"measurement": "IC50", "setting": "[1]", "value": 5, "unit": "µM"}]}, {"compound": "CC(C)CCN(C1c2cc(CC(=O)NCc3ccccc3)ccc2OC(C)(C)C1O)S(=O)(=O)c1ccc2ccccc2c1", "note": "(stereo not shown) [Example 25]", "values": [{"measurement": "IC50", "setting": "[1]", "value": 5.2, "unit": "µM"}]}, {"compound": "CCCNC(=O)Cc1ccc2c(c1)C(N(CCC(C)C)S(=O)(=O)c1ccc(-c3ccccc3)cc1)C(O)C(C)(C)O2", "note": "(stereo not shown) [Example 26]", "values": [{"measurement": "IC50", "setting": "[1]", "value": 5.2, "unit": "µM"}]}, {"compound": "COc1cccc(S(=O)(=O)N(CCC(C)C)C2c3cc(CC(=O)NCc4ccc(Cl)cc4)ccc3OC(C)(C)C2O)c1", "note": "(stereo not shown) [Example 27]", "values": [{"measurement": "IC50", "setting": "[1]", "value": 5.6, "unit": "µM"}]}]}
